# PMC8034185, “The rumen eukaryotome is a source of novel antimicrobial peptides with therapeutic potential” (BMC Microbiology, 2021)
# Bridge positions count the residues as written; N and C are the ends. Square brackets hold non-standard residues; d marks the D form. Peptide text beside a SMILES is read from it. * marks the point of attachment. X1 = CC[C@H](C)CCCCC(=O)*; Dab = NCC[C@H](N)C(=O)O
# What was measured:
# S. aureus MSSA (RN4220) = experiment: microbe, parasite or virus in culture; format: cell-based, Staphylococcus aureus; settings: Staphylococcus aureus, MSSA, 18 h, read-out: Minimum Inhibitory Concentration, S. aureus MSSA
# Procedure: (§1) MICs against a range of clinically important Gram-positive and Gram-negative bacteria strains including methicillin-sensitive Staphylococcus aureus (MSSA) RN4220 epidemic methicillin-resistant S. aureus-15 (EMRSA-15), methicillin-resistant S. aureus USA300 (MRSA USA300), Bacillus cereus, Enterococcus faecalis JH2–2, Escherichia coli K12, Salmonella enterica serovar Typhimurium SL1344, P. aeruginosa PAO1, and hospital isolates of Acinetobacter baummannii were determined in quadruplicate by a modified microdilution broth method [64] with a final bacterial inoculum concentration of 5 × 10^5 CFU/mL utilised as the test organisms. Cation-adjusted Mueller Hinton (MH) broth was innoclated overnight with a single colony of the tested microorganisms, subsequently grown for 16–24 h with shaking at 225 rpm, and further diluted in the same broth to a final concentration of 5 × 10^5 CFU/mL. The bacterial suspension was added to sterile U-bottomed 96-well plates, and the peptides and control antibiotics to be tested were dissolved in sterile distilled water and serially diluted in the wells. The MICs were recorded as the lowest peptide concentration that inhibited growth after incubation for 18 h [65].
# Ent. faecalis (JH2–2) = experiment: microbe, parasite or virus in culture; format: cell-based, Enterococcus faecalis; settings: Enterococcus faecalis, 18 h, read-out: Minimum Inhibitory Concentration, Ent. faecalis
# Procedure: as §1
# S. aureus USA300 = experiment: microbe, parasite or virus in culture; format: cell-based, Staphylococcus aureus; settings: Staphylococcus aureus, USA300, 18 h, read-out: Minimum Inhibitory Concentration, S. aureus USA300
# Procedure: as §1
# B. cereus = experiment: microbe, parasite or virus in culture; format: cell-based, Bacillus cereus; settings: Bacillus cereus, 18 h, read-out: Minimum Inhibitory Concentration, B. cereus
# Procedure: as §1
# S. aureus EMRSA-15 = experiment: microbe, parasite or virus in culture; format: cell-based, Staphylococcus aureus; settings: Staphylococcus aureus, EMRSA15, 18 h, read-out: Minimum Inhibitory Concentration, S. aureus EMRSA-15
# Procedure: as §1
# S. aureus ATCC 33591 = experiment: microbe, parasite or virus in culture; format: cell-based, Staphylococcus aureus; settings: Staphylococcus aureus, ATCC33591, 18 h, read-out: Minimum Inhibitory Concentration, S. aureus ATCC 33591
# Procedure: as §1
# EMRSA-15 cells = experiment: Time-kill assay; format: cell-based, Staphylococcus aureus; settings: for Time dependent kill, Mean Log CFU/ml / Time dependent kill, CFU/ml / Time dependent kill, Log CFU/ml: 3x MIC (24 ug/ml); for Time dependent kill, Mean Log CFU/ml: mean of 3 independent replicates
# Procedure: Time-dependent kill assays were adapted from standard procedures and were all performed as previously using exponential-phase cultures of EMRA-15 MRSA and USA300 grown in MHB (1 × 10^6 CFU/mL). […] Experiments were performed in triplicates, and CFU/mL was calculated at different time points after overnight incubation of inoculated agar plates (MHA) at 37 °C. Kill curves were plotted with CFU/mL against time (h).
# P. aeruginosa PAO1 = experiment: microbe, parasite or virus in culture; format: cell-based, Pseudomonas aeruginosa; settings: modified broth microdilution, cation-adjusted Mueller Hinton broth, inoculum 5 × 10^5 CFU/mL, 18 h, quadruplicate; highest concentration tested 512 μg/mL
# Procedure: as §1
# Sal. Tyhimurium (SL1344) = experiment: microbe, parasite or virus in culture; format: cell-based, Salmonella enterica serovar Typhimurium; settings: modified broth microdilution, cation-adjusted Mueller Hinton broth, inoculum 5 × 10^5 CFU/mL, 18 h, quadruplicate; highest concentration tested 512 μg/mL
# Procedure: as §1
# A. baumannii DSMZ 30007 = experiment: microbe, parasite or virus in culture; format: cell-based, Acinetobacter baumannii; settings: modified broth microdilution, cation-adjusted Mueller Hinton broth, inoculum 5 × 10^5 CFU/mL, 18 h, quadruplicate; highest concentration tested 512 μg/mL
# Procedure: as §1
# E. coli K12 = experiment: microbe, parasite or virus in culture; format: cell-based, Escherichia coli; settings: modified broth microdilution, cation-adjusted Mueller Hinton broth, inoculum 5 × 10^5 CFU/mL, 18 h, quadruplicate; highest concentration tested 512 μg/mL
# Procedure: as §1
# A. baumannii IMI/MER-R = experiment: microbe, parasite or virus in culture; format: cell-based, Acinetobacter baumannii; settings: imipenem/meropenem resistant; modified broth microdilution, cation-adjusted Mueller Hinton broth, inoculum 5 × 10^5 CFU/mL, 18 h, quadruplicate; highest concentration tested 512 μg/mL
# Procedure: as §1
# A. baumannii S27379 Sen = experiment: microbe, parasite or virus in culture; format: cell-based, Acinetobacter baumannii; settings: sensitive hospital isolate; modified broth microdilution, cation-adjusted Mueller Hinton broth, inoculum 5 × 10^5 CFU/mL, 18 h, quadruplicate; highest concentration tested 512 μg/mL
# Procedure: as §1
# [1] = tested on: A. baumannii S15785 OXA-23/0XA-50; experiment: microbe, parasite or virus in culture; format: cell-based, Acinetobacter baumannii; settings: modified broth microdilution, cation-adjusted Mueller Hinton broth, inoculum 5 × 10^5 CFU/mL, 18 h, quadruplicate; highest concentration tested 512 μg/mL
# Procedure: as §1
# P. aeruginosa H174 = experiment: microbe, parasite or virus in culture; format: cell-based, Pseudomonas aeruginosa; settings: modified broth microdilution, cation-adjusted Mueller Hinton broth, inoculum 5 × 10^5 CFU/mL, 18 h, quadruplicate; highest concentration tested 512 μg/mL
# Procedure: as §1
compound,measurement,setting,value
CN[C@H](CC(C)C)C(=O)N[C@H]1C(=O)N[C@@H](CC(N)=O)C(=O)N[C@H]2C(=O)N[C@H]3C(=O)N[C@H](C(=O)N[C@H](C(=O)O)c4cc(O)cc(O)c4-c4cc3ccc4O)[C@H](O)c3ccc(c(Cl)c3)Oc3cc2cc(c3O[C@@H]2O[C@H](CO)[C@@H](O)[C@H](O)[C@H]2O[C@H]2C[C@](C)(N)[C@H](O)[C@H](C)O2)Oc2ccc(cc2Cl)[C@H]1O [Vancomycin],MIC,S. aureus MSSA (RN4220),2 µg/mL
same,MIC,Ent. faecalis (JH2–2),2 µg/mL
same,MIC,S. aureus USA300,2 µg/mL
same,MIC,B. cereus,2 µg/mL
same,MIC,S. aureus EMRSA-15,2 µg/mL
same,MIC,S. aureus ATCC 33591,2 µg/mL
same,"Time dependent kill, Mean Log CFU/ml",EMRSA-15 cells; 0 min,6.839 Log CFU/ml
same,"Time dependent kill, Mean Log CFU/ml",EMRSA-15 cells; 10 min,6.579 Log CFU/ml
same,"Time dependent kill, Mean Log CFU/ml",EMRSA-15 cells; 30 min,6.503 Log CFU/ml
same,"Time dependent kill, Mean Log CFU/ml",EMRSA-15 cells; 60 min,6.404 Log CFU/ml
same,"Time dependent kill, Mean Log CFU/ml",EMRSA-15 cells; 120 min,5.884 Log CFU/ml
same,"Time dependent kill, Mean Log CFU/ml",EMRSA-15 cells; 240 min,5.168 Log CFU/ml
same,"Time dependent kill, Mean Log CFU/ml",EMRSA-15 cells; 360 min,4.661 Log CFU/ml
same,"Time dependent kill, Mean Log CFU/ml",EMRSA-15 cells; 1440 min,0 Log CFU/ml
same,"Time dependent kill, CFU/ml","EMRSA-15 cells; T0 min, Exp1",7200000 CFU/ml
same,"Time dependent kill, CFU/ml","EMRSA-15 cells; T0 min, Exp2",7600000 CFU/ml
same,"Time dependent kill, CFU/ml","EMRSA-15 cells; T0 min, Exp3",6000000 CFU/ml
same,"Time dependent kill, Log CFU/ml","EMRSA-15 cells; T0 min, Exp3",6.778 Log CFU/ml
same,"Time dependent kill, CFU/ml","EMRSA-15 cells; T10 min, Exp1",3800000 CFU/ml
same,"Time dependent kill, Log CFU/ml","EMRSA-15 cells; T10 min, Exp1",6.58 Log CFU/ml
same,"Time dependent kill, CFU/ml","EMRSA-15 cells; T10 min, Exp2",3600000 CFU/ml
same,"Time dependent kill, Log CFU/ml","EMRSA-15 cells; T10 min, Exp2",6.5563 Log CFU/ml
same,"Time dependent kill, CFU/ml","EMRSA-15 cells; T10 min, Exp3",4000000 CFU/ml
same,"Time dependent kill, Log CFU/ml","EMRSA-15 cells; T10 min, Exp3",6.602 Log CFU/ml
same,"Time dependent kill, CFU/ml","EMRSA-15 cells; T30 min, Exp1",2800000 CFU/ml
same,"Time dependent kill, Log CFU/ml","EMRSA-15 cells; T30 min, Exp1",6.447 Log CFU/ml
same,"Time dependent kill, CFU/ml","EMRSA-15 cells; T30 min, Exp2",4800000 CFU/ml
same,"Time dependent kill, Log CFU/ml","EMRSA-15 cells; T30 min, Exp2",6.681 Log CFU/ml
same,"Time dependent kill, CFU/ml","EMRSA-15 cells; T30 min, Exp3",2400000 CFU/ml
same,"Time dependent kill, Log CFU/ml","EMRSA-15 cells; T30 min, Exp3",6.38 Log CFU/ml
same,"Time dependent kill, CFU/ml","EMRSA-15 cells; T60 min, Exp1",2000000 CFU/ml
same,"Time dependent kill, Log CFU/ml","EMRSA-15 cells; T60 min, Exp1",6.301 Log CFU/ml
same,"Time dependent kill, CFU/ml","EMRSA-15 cells; T60 min, Exp2",3400000 CFU/ml
same,"Time dependent kill, Log CFU/ml","EMRSA-15 cells; T60 min, Exp2",6.531 Log CFU/ml
same,"Time dependent kill, CFU/ml","EMRSA-15 cells; T60 min, Exp3",2400000 CFU/ml
same,"Time dependent kill, Log CFU/ml","EMRSA-15 cells; T60 min, Exp3",6.38 Log CFU/ml
same,"Time dependent kill, CFU/ml","EMRSA-15 cells; T120 min, Exp1",800000 CFU/ml
same,"Time dependent kill, Log CFU/ml","EMRSA-15 cells; T120 min, Exp1",5.903 Log CFU/ml
same,"Time dependent kill, CFU/ml","EMRSA-15 cells; T120 min, Exp2",700000 CFU/ml
same,"Time dependent kill, Log CFU/ml","EMRSA-15 cells; T120 min, Exp2",5.8451 Log CFU/ml
same,"Time dependent kill, CFU/ml","EMRSA-15 cells; T120 min, Exp3",800000 CFU/ml
same,"Time dependent kill, Log CFU/ml","EMRSA-15 cells; T120 min, Exp3",5.903 Log CFU/ml
same,"Time dependent kill, CFU/ml","EMRSA-15 cells; T240 min, Exp1",80000 CFU/ml
same,"Time dependent kill, Log CFU/ml","EMRSA-15 cells; T240 min, Exp1",4.9031 Log CFU/ml
same,"Time dependent kill, CFU/ml","EMRSA-15 cells; T240 min, Exp2",100000 CFU/ml
same,"Time dependent kill, Log CFU/ml","EMRSA-15 cells; T240 min, Exp2",5 Log CFU/ml
same,"Time dependent kill, CFU/ml","EMRSA-15 cells; T240 min, Exp3",400000 CFU/ml
same,"Time dependent kill, Log CFU/ml","EMRSA-15 cells; T240 min, Exp3",5.602 Log CFU/ml
same,"Time dependent kill, CFU/ml","EMRSA-15 cells; T360 min, Exp1",60000 CFU/ml
same,"Time dependent kill, Log CFU/ml","EMRSA-15 cells; T360 min, Exp1",4.778 Log CFU/ml
same,"Time dependent kill, CFU/ml","EMRSA-15 cells; T360 min, Exp2",40000 CFU/ml
same,"Time dependent kill, Log CFU/ml","EMRSA-15 cells; T360 min, Exp2",4.602 Log CFU/ml
same,"Time dependent kill, CFU/ml","EMRSA-15 cells; T360 min, Exp3",40000 CFU/ml
same,"Time dependent kill, Log CFU/ml","EMRSA-15 cells; T360 min, Exp3",4.602 Log CFU/ml
same,"Time dependent kill, CFU/ml","EMRSA-15 cells; T1440 min, Exp1",0 CFU/ml
same,"Time dependent kill, Log CFU/ml","EMRSA-15 cells; T1440 min, Exp1",0 Log CFU/ml
same,"Time dependent kill, CFU/ml","EMRSA-15 cells; T1440 min, Exp2",0 CFU/ml
same,"Time dependent kill, Log CFU/ml","EMRSA-15 cells; T1440 min, Exp2",0 Log CFU/ml
same,"Time dependent kill, CFU/ml","EMRSA-15 cells; T1440 min, Exp3",0 CFU/ml
same,"Time dependent kill, Log CFU/ml","EMRSA-15 cells; T1440 min, Exp3",0 Log CFU/ml
same,"reduction in viable cells, time-kill","EMRSA-15 cells; EMRSA-15, 3× MIC, after 6 h",≥ 10^3 CFU/mL
CC[C@H](C)CCCCC(=O)N[C@@H](CCN)C(=O)N[C@H](C(=O)N[C@@H](CCN)C(=O)N[C@H]1CCNC(=O)[C@H]([C@@H](C)O)NC(=O)[C@H](CCN)NC(=O)[C@H](CCN)NC(=O)[C@H](CC(C)C)NC(=O)[C@@H](Cc2ccccc2)NC(=O)[C@H](CCN)NC1=O)[C@@H](C)O [Polymyxin B] (X1-[Dab]T[Dab][Dab][Dab][dF]L[Dab][Dab]T; lactam 4-C (inferred); N-terminus assumed),"Minimum Inhibitory Concentration, P. aeruginosa PAO1",P. aeruginosa PAO1,2 µg/mL
same,"Minimum Inhibitory Concentration, Sal. Tyhimurium",Sal. Tyhimurium (SL1344),1 µg/mL
same,"Minimum Inhibitory Concentration, A. baumannii DSMZ 30007",A. baumannii DSMZ 30007,1 µg/mL
same,"Minimum Inhibitory Concentration, E. coli K12",E. coli K12,0.5 µg/mL
same,"Minimum Inhibitory Concentration, A. baumannii IMI/MER-R",A. baumannii IMI/MER-R,1 µg/mL
same,"Minimum Inhibitory Concentration, A. baumannii S27379 Sen",A. baumannii S27379 Sen,1 µg/mL
same,"Minimum Inhibitory Concentration, A. baumannii S15785 OXA-23/0XA-50",[1],0.5 µg/mL
same,"Minimum Inhibitory Concentration, P. aeruginosa H174",P. aeruginosa H174,1 µg/mL
